Source: PMC6496756, “Zerumbone, a cyclic sesquiterpene, exerts antimitotic activity in HeLa cells through tubulin binding and exhibits synergistic activity with vinblastine and paclitaxel” (Cell Proliferation, 2018)

Molecular target: T1, tubulin (alpha/beta heterodimer)
T1 construct: purified goat brain tubulin; with alpha-tubulin/beta-tubulin heterodimer
Assay: intrinsic tryptophan fluorescence quenching; also competition with colchicine and inhibition of tubulin polymerization
Assay type: binding, Capra hircus

- Kd: 4 µM
SMILES: C/C1=C\CC(C)(C)/C=C/C(=O)/C(C)=C/CC1 [zerumbone, (2E,6E,10E)‐2,6,9,9‐tetramethylcycloundeca‐2,6,10‐trien‐1‐one]
